For 1 compound, IC50 results are on record in patent publication US9949979B2, “Use of inhibitors of the activity or function of PI3K” (NOVARTIS AG, priority 2011, dated 2018).

Molecules are shown by their SMILES.

For this assay, the system named is TLR9. The experiment in a line: TLR9-induced IFNalpha in human PBMC (CpG2216, AlphaLISA). It counts as cell-based. The settings on record: read-out: TLR9-ligand induced IFNα in human PBMC IC50. The protocol:
2.4 Determination of TLR9-Induced IFNalpha in Human Peripheral Blood Mononuclear Cells (PBMCs) and Isolated Plasmacytoid Dendritic Cells (pDCs)
Human blood (ca. 75 ml) was collected in 10 S-Monovette tubes containing Heparin (S-Monovette 7.5 mL NH Heparin 16 IU/mL blood; Starstedt). Leucosep™ tubes (30 mL #227290; Greiner Bio-one) were prepared by addition of 15 ml lymphocyte separation medium LSM1077™ per tube (#J15-004; PAA Laboratories) and centrifugation for 30 sec at 1000 g. Some 25 ml blood was transferred to Leucosep™ tubes following dilution with equal parts of PBS (without Ca2+/Mg2+; #14190-094). […] The PBMC were counted using a Countess® Automated cell counter (sample was pre-diluted 1:10 in Media, prior to the addition of equal volume (10 μl) of Trypan Blue). […]
Compounds were pre-diluted in 100% v/v DMSO (#41640-100 mL; Sigma-Aldrich), followed by transfer in Media (to achieve a final DMSO concentration of 0.25%). […] Plates were briefly centrifuged (200×g for 2 min at 22° C.) and supernatant samples (30 μl) removed for quantification of IFNα levels.
For quantification of IFNalpha the human interferon AlphaLISA Kit (#AL264F) from PerkinElmer was used. […] Data were collected for analysis and quantification of IFNα levels.
Data were analysed using Excel XL fit 4.0 (Microsoft) with XLfit add-in (IDBS; version 4.3.2). […]

As to `CCC(=O)N1CC[C@H](Nc2ncnc3c2CN(c2cnc(OC)c(C(F)(F)F)c2)CC3)C1` [Example 67, 1-{(S)-3-[6-(6-Methoxy-5-trifluoromethyl-pyridin-3-yl)-5,6,7,8-tetrahydro-pyrido[4,3-d]pyrimidin-4-ylamino]-pyrrolidin-1-yl}-propan-1-one], the IC50 (usually the concentration that inhibits the measured activity by half) was found to be 0.109 µM.
